Results published in ChEMBL document CHEMBL1133824, “Amino acid phosphoramidate nucleosides: potential ADEPT/GDEPT substrates” (2001).

Tests used:
Format in all cases: functional
CCRF-CEM [1] = experiment: In vitro concentration required for 50% inhibition of growth of human leukemia cell line CCRF-CEM with hPAP (0.2 unit/mL)
CCRF-CEM [2] = experiment: In vitro concentration required for 50% inhibition of growth of human leukemia cell line CCRF-CEM without hPAP (0.2 unit/mL)
[3] = Ratio of GI50 without hPAP/ GI50 with hPAP

GI50 (CCRF-CEM [1]) [nM] | GI50 (CCRF-CEM [2]) [nM] | SMILES | Ratio [3]
0.9 | 4830 | COC(=O)[C@H](Cc1c[nH]c2ccccc12)NP(=O)(O)OCC1OC(n2cc(F)c(=O)[nH]c2=O)CC1O (some centres not stated) | 5370
0.8 | 463 | COC(=O)[C@H](Cc1ccccc1)NP(=O)(O)OCC1OC(n2cc(F)c(=O)[nH]c2=O)CC1O (some centres not stated) | 578
99.8 | 90 | Nc1ccn([C@@H]2O[C@H](CO)[C@@H](O)[C@@H]2O)c(=O)n1 [CYTARABINE] | 0.902
0.6 | 2 | O=c1[nH]c(=O)n([C@H]2C[C@H](O)[C@@H](CO)O2)cc1F [FLOXURIDINE] | 3.33
